Assay [1] relates to muscarinic cholinergic receptors. The assay is classed as binding. To be noted: rat brain homogenate, [3H]QNB, 25° C., pH 7.4; for MRBA percent inhibition of total specific binding: concentration not given; for IC50: read-out: MRBA IC50.
For assay [2], the system named is brain dopamine receptors. Description: Haloperidol receptor binding assay (HRBA), inhibition of 3H-haloperidol binding. Particulars: rat corpus striatum, 0.6 nM 3H-haloperidol; for HRBA percent inhibition: 1 nM and 10 nM of test drug in primary screen, concentration per value not given; for IC50: pH 7.7.
Assay [3] concerns the target Dopamine D2 receptor (Rattus norvegicus, UniProt P61169). Description: Affinity for dopamine D2 receptors in rat brain membranes. Type of assay: binding.
The target in assay [4] is Muscarinic Cholinergic receptor. Description: Affinity for muscarinic cholinergic receptors in rat brain membranes. The assay is classed as binding. The procedure: This test uses the displacement of [^3 H] quinuclidinyl benzilate ([^3 H]QNB) from specific muscarinic cholinergic receptors in the rat brain to measure in vitro anticholinergic activity of compounds. […]. A Long-Evans male rat weighing 180-200 grams is routinely used. The brain tissue homogenate along with appropriate concentrations of test compounds and [^3 H]QNB is incubated for one hour at 25° C. in a buffer medium of 50 mM Na-K PO4 pH 7.4. The material is filtered and washed on a millipore filter using Whatman GF/B filters. The filters are counted on a scintillation spectrophotometer. A maximal displacement by 0.1 mM oxotremorine is used to determine how much of the total binding is specific for muscarinic receptors.
Results: The results are reported as percent inhibition of total specific binding. Reference: Yamamura, Henry L. and Snyder, Solomon H. (1974). Muscarinic Cholinergic Binding in Rat Brain Proc. Nat. Acad. Sci. USA Vol 71 No. 5 pp. 1725-1729 May 1974.
(§1) for Dopamine D2, Muscarinic, and
(§2) Histamine H1 Receptors in Rat Brain Membranes

Assay [5] addresses T1, Histamine H1 receptor (Rattus norvegicus, UniProt P31390).
T1 construct: Histamine H1 Receptors in Rat Brain Membranes; from tissue; host or cells: rat brain membranes
Description: Affinity for histamine H1 receptors in rat brain membranes. Type of assay: binding.
From the text: as §1, §2
*Tran V. T., Lebovitz, R., Toll, L., and Snyder, S. H.: [^3 H]Doxepin
interactions with histamine H1 -receptors in guinea pig and rat brai

Setting [6] is: rat brain membranes, read-out: Receptor Ki, Histamine H1.

Molecules are shown by their SMILES. Counter-ions that a name gives are not always drawn. Like-named read-outs stand apart in the source and are kept apart here.

Chain of Dopamine D2 receptor (P61169 whole entry): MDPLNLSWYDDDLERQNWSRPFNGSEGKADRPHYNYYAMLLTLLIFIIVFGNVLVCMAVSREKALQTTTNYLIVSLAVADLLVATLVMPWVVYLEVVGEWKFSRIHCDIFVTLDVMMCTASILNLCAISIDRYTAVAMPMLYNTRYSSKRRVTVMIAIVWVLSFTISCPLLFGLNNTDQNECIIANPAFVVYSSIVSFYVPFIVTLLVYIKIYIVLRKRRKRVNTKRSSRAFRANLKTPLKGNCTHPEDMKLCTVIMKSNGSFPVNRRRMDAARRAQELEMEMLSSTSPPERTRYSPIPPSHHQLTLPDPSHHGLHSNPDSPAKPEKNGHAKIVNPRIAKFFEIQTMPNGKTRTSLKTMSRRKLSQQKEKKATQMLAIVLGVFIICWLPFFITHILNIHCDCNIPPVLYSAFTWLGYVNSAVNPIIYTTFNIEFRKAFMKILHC
T1 sequence (P31390 whole entry): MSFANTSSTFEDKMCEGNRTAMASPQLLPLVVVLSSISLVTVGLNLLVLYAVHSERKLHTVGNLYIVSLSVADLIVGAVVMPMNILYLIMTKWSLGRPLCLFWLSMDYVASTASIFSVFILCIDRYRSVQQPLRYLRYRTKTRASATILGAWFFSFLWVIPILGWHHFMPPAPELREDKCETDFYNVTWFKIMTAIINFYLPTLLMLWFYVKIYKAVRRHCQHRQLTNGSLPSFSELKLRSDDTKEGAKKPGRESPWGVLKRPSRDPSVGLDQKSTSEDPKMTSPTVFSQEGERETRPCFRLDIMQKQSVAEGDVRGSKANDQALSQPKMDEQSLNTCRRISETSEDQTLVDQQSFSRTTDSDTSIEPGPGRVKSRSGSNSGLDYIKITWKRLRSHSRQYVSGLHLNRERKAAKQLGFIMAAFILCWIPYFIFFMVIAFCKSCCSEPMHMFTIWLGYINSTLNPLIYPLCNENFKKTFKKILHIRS

Turning to `Cl.Cl.Fc1ccc(C(=C2CCN(CCN3CCCCC3)CC2)c2ccc(F)cc2)cc1` [Compound 15, Piperidine, 4-[bis-(4-fluorophenyl)-methylene]-1-[2-(1-piperidinyl)ethyl]-, dihydrochloride], in assay [1], the “MRBA percent inhibition of total specific binding” value (shortened to “MRBA percent inhibition”) is reported as 67%. Moreover, the HRBA percent inhibition in assay [2] stood at 62%. Besides, the results for the Ki in assay [3], in assay [4] and in assay [5] were 56 nM, 17 nM and 86 nM, respectively.

Take `c1ccc(C(=C2CCN(CCN3CCCC3)CC2)c2ccccc2)cc1` [Compound 2, Piperidine, 4-(diphenylmethylene)-1-[2-(1-pyrrolidinyl)ethyl]-,dihydrochloride]: the IC50 (in general, the concentration that gives 50% inhibition) stood at 8.4 nM in assay [1] and 309 nM in assay [2] (unit inferred).

Consider `CN1CCCC1CCN1CCC(=C(c2ccccc2)c2ccccc2)CC1` (stereo not drawn) [Compound 5, Piperidine, 4-(diphenylmethylene)-1-[2-(1-methyl-2-pyrrolidinyl)ethyl]-, dihydrochloride, hemihydrate], for which the IC50 in assay [1] amounted to 19.9 nM; in assay [2] (unit inferred), 72.7 nM.

In the case of `Fc1cccc(C(=C2CCN(CCCN3CCCCC3)CC2)c2ccccc2)c1` [Compound 19, Piperidine, 4-[(3-fluorophenyl)phenylmethylene]-1-[3-(1-piperidinyl)propyl]-, dihydrochloride], the “MRBA percent inhibition” value in assay [1] was determined as 45%. Further, the HRBA percent inhibition in assay [2] came to 36%.

Take `Cl.Cl.c1ccc(C(=C2CCN(CCCCN3CCCCC3)CC2)c2ccccc2)cc1` [Compound 6, Piperidine, 4-(diphenylmethylene)-1-[4-[1-piperidinyl]butyl]-, dihydrochloride]: the “MRBA percent inhibition” value in assay [1] is 83%.

As for `N#CN=C(NCCCN1CCC(=C(c2ccccc2)c2ccccc2)CC1)N1CCCCC1` [Compound 23, 1-Piperidinecarboximidamine, N'-cyano-N-[3-[4-diphenylmethylene]-1-piperidinyl]propyl], the “MRBA percent inhibition” value in assay [1] is listed as 86%. The molecule also registered an HRBA percent inhibition in assay [2] of 55%. Besides, the results for the Ki in assay [3], in assay [4] and in assay [5] (setting [6]) were 28 nM, 2 nM and 1.7 nM, respectively.

Take `Cl.Cl.Clc1cccc(C(=C2CCN(CCCN3CCCCC3)CC2)c2ccccc2)c1` [Compound 18, Piperidine, 4-[(3-chlorophenyl)phenylmethylene]-1-[3-(1-piperidinyl)propyl]-, dihydrochloride]: the “MRBA percent inhibition” value in assay [1] is 37%. In assay [2], this molecule yielded an HRBA percent inhibition of 52%.

Consider `CNC(=NC#N)NCCCN1CCC(=C(c2ccccc2)c2ccccc2)CC1` [Compound 22, Guanidine, N'-cyano-N-[3-[4-(diphenylmethylene)-1-piperidinyl]propyl]-N'-methyl], for which, in assay [1], the “MRBA percent inhibition” value is recorded as 42%. The HRBA percent inhibition in assay [2] was determined as 73%.

`c1ccc(C(=C2CCN(CCCN3CCCc4ccccc43)CC2)c2ccccc2)cc1`: the Ki – broadly, a measure of affinity in units of concentration, obtained from inhibition or displacement – in assay [3] stood at 42 nM; in assay [4] it was 11 nM; in assay [5] (setting [6]) it was 31 nM.

Regarding `Fc1cccc(C(=C2CCN(CCCN3CCCCC3)CC2)c2cccc(F)c2)c1` [Compound 17, dihydrochloride], the “MRBA percent inhibition” value in assay [1] stood at 32%.

Consider `c1ccc(C(=C2CCN(CCCN3CCCCC3)CC2)c2ccccc2)cc1` [Compound 4, Piperidine, 4-(diphenylmethylene)-1-[3-(1-piperidinyl)propyl]-,dihydrochloride, hemihydrate], for which the IC50 in assay [1] was 15 nM; in assay [2] it was 50.4 nM.

In the case of `OCCC1CCN(CCCN2CCC(=C(c3ccccc3)c3ccccc3)CC2)CC1` [Compound 13, 4-Piperidineethanol, 1-[3-[4-(diphenylmethylene)-1-piperidinyl]propyl]-,dihydrochloride, monohydrate], the “MRBA percent inhibition” value in assay [1] came out at 83%. Further, in assay [2], the HRBA percent inhibition is listed as 55%. For the same molecule, the figures for the Ki in assay [3], in assay [4] and in assay [5] (setting [6]) were 158 nM, 5 nM and 19.5 nM, respectively.

Consider `c1ccc(C(=C2CCN(CCN3CCCCC3)CC2)c2ccccc2)cc1` [Compound 3, Piperidine, 4-(diphenylmethylene)-1-[2-(1-piperidinyl)ethyl]-, dihydrochloride, hydrate (4:1)], for which the results for the IC50 in assay [1] and in assay [2] were 18.1 nM and 135 nM, respectively. Besides, the Ki in assay [3] came to 105 nM; in assay [4] it was 3 nM; in assay [5] (setting [6]), 12 nM.

On to `Cl.Cl.O.c1ccc(C(=C2CCN(CCCN3CCCc4ccccc43)CC2)c2ccccc2)cc1` [Compound 10, Quinoline, 1-[3-[4-(diphenylmethylene]-1-piperidinyl]propyl]-1,2,3,4-tetrahydro-, dihydrochloride, monohydrate], for which the “MRBA percent inhibition” value in assay [1] stood at 83%. The HRBA percent inhibition in assay [2] was determined as 69%.

As for `Fc1ccc(C(=C2CCN(CCCN3CCCCC3)CC2)c2ccc(F)cc2)cc1` [Compound 14, Piperidine, 1-[3-(1-piperidinyl)propyl]-4-[bis-(4-fluorophenyl)-methylene]-, dihydrochloride, hydrate (2:1)], the “MRBA percent inhibition” value in assay [1] is given as 57%. Further, the HRBA percent inhibition in assay [2] is 73%. Moreover, the Ki in assay [3] was found to be 67 nM; in assay [4], 23 nM; in assay [5] (setting [6]), 16 nM.

With `O=C(CCCN1CCCCC1)N1CCC(=C(c2ccccc2)c2ccccc2)CC1` [Compound 20, Piperidine, 4-(diphenylmethylene)-1-[1-oxo-4-(1-piperidinyl)butyl]-], in assay [1], the “MRBA percent inhibition” value stood at 54%.

`CC1(C)CC(=O)C=C(NCCN2CCC(=C(c3ccccc3)c3ccccc3)CC2)C1` [Compound 9, 2-Cyclohexen-1-one, 3-[[2-[4-(diphenylmethylene)-1-piperidinyl]ethyl]amino]-5,5-dimethyl]: the “MRBA percent inhibition” value in assay [1] turned out to be 73%. Also, the HRBA percent inhibition in assay [2] was 63%. In addition, the values for the Ki in assay [3], in assay [4] and in assay [5] (setting [6]) were 75 nM, 11 nM and 56 nM, respectively.

As to `CN1CCCC1CCN1CCC(=C(c2ccc(F)cc2)c2ccc(F)cc2)CC1` (stereo not drawn) [Compound 16, Piperidine, 4-[bis-(4-fluorophenyl)-methylene]-1-[2-(1-methyl-2-pyrrolidinyl)ethyl]-, (E)-2-butanedioate (1:2)], in assay [1], the “MRBA percent inhibition” value was 36%. Also, the HRBA percent inhibition in assay [2] is on record as 48%.

`O=C(CCN1CCC(=C(c2ccccc2)c2ccccc2)CC1)N1CCC(O)(O)CC1` [Compound 11, 4,4-Piperidinediol, 1-[3-[4-(diphenylmethylene)-1-piperidinyl]-1-oxopropyl]]: the IC50 was found to be 38.3 nM in assay [1] and 367 nM in assay [2].

Consider `OC1CCN(CCCN2CCC(=C(c3ccccc3)c3ccccc3)CC2)CC1` [Compound 12, 4-Piperidinol, 1-[3-[4-(diphenylmethylene)-1-piperidinyl]propyl]-,dihydro-chloride, hemihydrate], for which the “MRBA percent inhibition” value in assay [1] is reported as 63%. Also, the HRBA percent inhibition in assay [2] worked out at 89%. The Ki in assay [3] is 25 nM; in assay [4] it was 15 nM; in assay [5] (setting [6]) it was 6.1 nM.

On to `CSC(=NC#N)NCCCN1CCC(=C(c2ccccc2)c2ccccc2)CC1` [Compound 21, Carbamimidothioic acid, N'-cyano-N-[3-[4-(diphenylmethylene)-1-piperidinyl]-propyl]-, methyl ester], for which the IC50 in assay [1] was 64.7 nM; in assay [2], 39.2 nM. Further, the Ki was found to be 32 nM in assay [3], 8.6 nM in assay [4] and 0.38 nM in assay [5] (setting [6]).

On to `O=C(CCN1CCC(=C(c2ccccc2)c2ccccc2)CC1)N1CC=C(Oc2ccc(F)cc2)CC1` [Compound 8, pyridine, 1-[3-[4-(diphenylmethylene-1-piperidinyl]-1-oxopropyl]-4-(fluorophenoxy)-1,2,3,6-tetrahydro-, 2-hydroxy-1,2,3-propane tricarboxylate(1:1), dihydrate], for which the “MRBA percent inhibition” value in assay [1] is reported as 64%.

For `O=C(CCN1CCC(=C(c2ccccc2)c2ccccc2)CC1)N1CCCc2ccccc21` [Compound 7], in assay [1], the “MRBA percent inhibition” value came to 52%.

The record behind these values is US4584301A, “Diphenylmethylene piperidines, compositions and methods of use” (Warner-Lambert Company, priority 1985, dated 1986).
